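Values below derive from 48-hour exposures of cells grown in 96-well plates, with endpoints linearly interpolated between the two concentrations bracketing the appropriate inhibition level. TGI is the concentration that stops growth completely.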
Tests used:
Test in all cases: NCI-60 cell line screen, 48 h
NCI-H460 lung = tested on: NCI-H460 lung
MCF7 breast = tested on: MCF7 breast
MDA-N = tested on: MDA-N
IGROV1 ovarian = tested on: IGROV1 ovarian
786-0 renal = tested on: 786-0 renal
T-47D breast = tested on: T-47D breast
RPMI-8226 leukemia = tested on: RPMI-8226 leukemia
COLO 205 colon = tested on: COLO 205 colon
CAKI-1 renal = tested on: CAKI-1 renal
SF-295 CNS = tested on: SF-295 CNS
SK-MEL-2 melanoma = tested on: SK-MEL-2 melanoma
OVCAR-8 ovarian = tested on: OVCAR-8 ovarian
NCI/ADR-RES ovarian = tested on: NCI/ADR-RES ovarian
NCI-H226 lung = tested on: NCI-H226 lung
MDA-MB-231 breast = tested on: MDA-MB-231 breast
UACC-257 melanoma = tested on: UACC-257 melanoma
HOP-62 NSCLC = tested on: HOP-62 NSCLC
SK-MEL-5 melanoma = tested on: SK-MEL-5 melanoma
SK-OV-3 ovarian = tested on: SK-OV-3 ovarian
SNB-19 CNS = tested on: SNB-19 CNS
SN12C renal = tested on: SN12C renal
PC-3 prostate = tested on: PC-3 prostate
DU-145 prostate = tested on: DU-145 prostate
M14 melanoma = tested on: M14 melanoma
HCT-116 colon = tested on: HCT-116 colon
U251 CNS = tested on: U251 CNS
ACHN renal = tested on: ACHN renal
NCI-H23 lung = tested on: NCI-H23 lung
A549 NSCLC = tested on: A549 NSCLC
HL-60(TB) leukemia = tested on: HL-60(TB) leukemia
MALME-3M melanoma = tested on: MALME-3M melanoma
SK-MEL-28 melanoma = tested on: SK-MEL-28 melanoma
K-562 leukemia = tested on: K-562 leukemia
UO-31 renal = tested on: UO-31 renal
MOLT-4 leukemia = tested on: MOLT-4 leukemia
CCRF-CEM leukemia = tested on: CCRF-CEM leukemia
SF-268 CNS = tested on: SF-268 CNS
HOP-92 NSCLC = tested on: HOP-92 NSCLC
OVCAR-4 ovarian = tested on: OVCAR-4 ovarian
HCT-15 colon = tested on: HCT-15 colon
TK-10 renal = tested on: TK-10 renal
HT29 colon = tested on: HT29 colon
MDA-MB-435 = tested on: MDA-MB-435
EKVX NSCLC = tested on: EKVX NSCLC
HCC-2998 colon = tested on: HCC-2998 colon
SW-620 colon = tested on: SW-620 colon
SR leukemia = tested on: SR leukemia
KM12 colon = tested on: KM12 colon
HS 578T breast = tested on: HS 578T breast
RXF 393 renal = tested on: RXF 393 renal
UACC-62 melanoma = tested on: UACC-62 melanoma
SNB-75 CNS = tested on: SNB-75 CNS
A498 renal = tested on: A498 renal
OVCAR-3 ovarian = tested on: OVCAR-3 ovarian
NCI-H522 lung = tested on: NCI-H522 lung
BT-549 breast = tested on: BT-549 breast
OVCAR-5 ovarian = tested on: OVCAR-5 ovarian
LOX IMVI melanoma = tested on: LOX IMVI melanoma
SF-539 CNS = tested on: SF-539 CNS

O=C(O)c1ccccc1NC(c1ccccc1)c1ccc2cccnc2c1O (centres undefined)
TGI (NCI-H460 lung): 63.4 µM
TGI (MCF7 breast): > 62.4 µM
TGI (MDA-N): > 100 µM
TGI (IGROV1 ovarian): > 100 µM
TGI (786-0 renal): 20.1 µM
TGI (T-47D breast): 39.4 µM
TGI (RPMI-8226 leukemia): 16.9 µM
TGI (COLO 205 colon): 80.9 µM
TGI (CAKI-1 renal): 50.1 µM
TGI (SF-295 CNS): > 100 µM
TGI (SK-MEL-2 melanoma): > 100 µM
TGI (OVCAR-8 ovarian): > 100 µM
TGI (NCI/ADR-RES ovarian): > 49.3 µM
TGI (NCI-H226 lung): > 28.5 µM
TGI (MDA-MB-231 breast): > 62.4 µM
TGI (UACC-257 melanoma): 43.9 µM
TGI (HOP-62 NSCLC): > 100 µM
TGI (SK-MEL-5 melanoma): 24.5 µM
TGI (SK-OV-3 ovarian): > 100 µM
TGI (SNB-19 CNS): > 100 µM
TGI (SN12C renal): > 51.4 µM
TGI (PC-3 prostate): > 88.8 µM
TGI (DU-145 prostate): > 100 µM
TGI (M14 melanoma): 38.8 µM
TGI (HCT-116 colon): > 64.2 µM
TGI (U251 CNS): 21.8 µM
TGI (ACHN renal): > 100 µM
TGI (NCI-H23 lung): > 53 µM
TGI (A549 NSCLC): > 100 µM
TGI (HL-60(TB) leukemia): 8.22 µM
TGI (MALME-3M melanoma): > 56.4 µM
TGI (SK-MEL-28 melanoma): 44.2 µM
TGI (K-562 leukemia): 53.3 µM
TGI (UO-31 renal): 23.8 µM
TGI (MOLT-4 leukemia): 34 µM
TGI (CCRF-CEM leukemia): > 22.7 µM
TGI (SF-268 CNS): > 43.5 µM
TGI (HOP-92 NSCLC): > 100 µM
TGI (OVCAR-4 ovarian): 34.6 µM
TGI (HCT-15 colon): > 58.9 µM
TGI (TK-10 renal): 51.1 µM
TGI (HT29 colon): > 100 µM
TGI (MDA-MB-435): > 66.9 µM
TGI (EKVX NSCLC): > 47.5 µM
TGI (HCC-2998 colon): > 100 µM
TGI (SW-620 colon): 46.4 µM
TGI (SR leukemia): > 46.8 µM
TGI (KM12 colon): > 100 µM
TGI (HS 578T breast): > 68.1 µM
TGI (RXF 393 renal): 27.7 µM
TGI (UACC-62 melanoma): > 50 µM
TGI (SNB-75 CNS): > 86.7 µM
TGI (A498 renal): > 100 µM
TGI (OVCAR-3 ovarian): 14.4 µM
TGI (NCI-H522 lung): 23.3 µM
TGI (BT-549 breast): 45.1 µM
TGI (OVCAR-5 ovarian): 58 µM
TGI (LOX IMVI melanoma): 43.2 µM
TGI (SF-539 CNS): 22.1 µM

Cc1ccc(C2=Nc3cc(C)c(Cl)cc3S(=O)(=O)NN2)cc1
TGI (NCI-H460 lung): > 100 µM
TGI (MCF7 breast): > 100 µM
TGI (MDA-N): > 100 µM
TGI (IGROV1 ovarian): > 100 µM
TGI (786-0 renal): > 100 µM
TGI (T-47D breast): > 100 µM
TGI (RPMI-8226 leukemia): > 100 µM
TGI (COLO 205 colon): > 100 µM
TGI (CAKI-1 renal): 75.7 µM
TGI (SF-295 CNS): > 100 µM
TGI (OVCAR-8 ovarian): > 100 µM
TGI (NCI/ADR-RES ovarian): > 100 µM
TGI (NCI-H226 lung): > 100 µM
TGI (MDA-MB-231 breast): > 100 µM
TGI (UACC-257 melanoma): > 100 µM
TGI (HOP-62 NSCLC): > 100 µM
TGI (SK-MEL-5 melanoma): > 100 µM
TGI (SK-OV-3 ovarian): > 100 µM
TGI (SNB-19 CNS): > 100 µM
TGI (SN12C renal): > 100 µM
TGI (PC-3 prostate): > 100 µM
TGI (DU-145 prostate): > 100 µM
TGI (M14 melanoma): > 100 µM
TGI (HCT-116 colon): > 100 µM
TGI (U251 CNS): > 100 µM
TGI (ACHN renal): > 100 µM
TGI (NCI-H23 lung): > 100 µM
TGI (A549 NSCLC): > 100 µM
TGI (HL-60(TB) leukemia): 90.7 µM
TGI (MALME-3M melanoma): > 100 µM
TGI (SK-MEL-28 melanoma): > 100 µM
TGI (K-562 leukemia): > 100 µM
TGI (UO-31 renal): > 100 µM
TGI (MOLT-4 leukemia): > 100 µM
TGI (CCRF-CEM leukemia): > 100 µM
TGI (SF-268 CNS): > 100 µM
TGI (HOP-92 NSCLC): > 100 µM
TGI (OVCAR-4 ovarian): > 100 µM
TGI (HCT-15 colon): > 100 µM
TGI (TK-10 renal): > 100 µM
TGI (HT29 colon): > 100 µM
TGI (MDA-MB-435): > 100 µM
TGI (EKVX NSCLC): > 100 µM
TGI (HCC-2998 colon): > 100 µM
TGI (SW-620 colon): > 100 µM
TGI (SR leukemia): 53 µM
TGI (KM12 colon): > 100 µM
TGI (HS 578T breast): > 100 µM
TGI (RXF 393 renal): > 100 µM
TGI (UACC-62 melanoma): > 100 µM
TGI (SNB-75 CNS): > 100 µM
TGI (A498 renal): > 100 µM
TGI (OVCAR-3 ovarian): > 100 µM
TGI (NCI-H522 lung): > 100 µM
TGI (BT-549 breast): > 100 µM
TGI (LOX IMVI melanoma): > 100 µM
TGI (SF-539 CNS): > 100 µM

O=C1c2c(Cl)c(Cl)c(Cl)c(Cl)c2C(=O)N1CCN(c1c(Cl)ssc1=O)c1c(Cl)ssc1=O
TGI (NCI-H460 lung): > 100 µM
TGI (MCF7 breast): 44.8 µM
TGI (MDA-N): 33.3 µM
TGI (IGROV1 ovarian): > 100 µM
TGI (786-0 renal): 32.8 µM
TGI (T-47D breast): 44.5 µM
TGI (COLO 205 colon): 35 µM
TGI (CAKI-1 renal): 34.7 µM
TGI (SF-295 CNS): > 100 µM
TGI (SK-MEL-2 melanoma): 54.3 µM
TGI (OVCAR-8 ovarian): 44.6 µM
TGI (NCI/ADR-RES ovarian): > 100 µM
TGI (NCI-H226 lung): > 100 µM
TGI (MDA-MB-231 breast): > 100 µM
TGI (UACC-257 melanoma): 31.5 µM
TGI (HOP-62 NSCLC): > 100 µM
TGI (SK-MEL-5 melanoma): > 100 µM
TGI (SK-OV-3 ovarian): > 100 µM
TGI (SNB-19 CNS): > 100 µM
TGI (SN12C renal): 47.7 µM
TGI (PC-3 prostate): 56.8 µM
TGI (DU-145 prostate): 36.7 µM
TGI (M14 melanoma): 46.2 µM
TGI (HCT-116 colon): 29.9 µM
TGI (U251 CNS): > 100 µM
TGI (ACHN renal): 32.9 µM
TGI (NCI-H23 lung): > 100 µM
TGI (A549 NSCLC): > 100 µM
TGI (HL-60(TB) leukemia): > 100 µM
TGI (MALME-3M melanoma): 53.6 µM
TGI (SK-MEL-28 melanoma): > 100 µM
TGI (K-562 leukemia): 53.4 µM
TGI (UO-31 renal): 32.3 µM
TGI (MOLT-4 leukemia): 37.7 µM
TGI (CCRF-CEM leukemia): 72 µM
TGI (SF-268 CNS): > 100 µM
TGI (HOP-92 NSCLC): 35.5 µM
TGI (OVCAR-4 ovarian): 40.2 µM
TGI (HCT-15 colon): 41.1 µM
TGI (TK-10 renal): 33.5 µM
TGI (HT29 colon): 35.6 µM
TGI (MDA-MB-435): 45.4 µM
TGI (EKVX NSCLC): 88.6 µM
TGI (HCC-2998 colon): 58.8 µM
TGI (SW-620 colon): 61.9 µM
TGI (SR leukemia): 44.7 µM
TGI (KM12 colon): > 100 µM
TGI (HS 578T breast): > 100 µM
TGI (RXF 393 renal): 34.4 µM
TGI (UACC-62 melanoma): 44.4 µM
TGI (SNB-75 CNS): > 100 µM
TGI (A498 renal): > 100 µM
TGI (OVCAR-3 ovarian): 36.6 µM
TGI (NCI-H522 lung): 57.8 µM
TGI (BT-549 breast): > 100 µM
TGI (OVCAR-5 ovarian): > 100 µM
TGI (LOX IMVI melanoma): 48.5 µM
TGI (SF-539 CNS): 35.4 µM

From PubChem BioAssay (NCI)
